The text below walks through data of PMC12041489 (Scientific Reports, 2025).

SMILES strings stand for the structures.

One experiment deals with fresh-cut apples. Nature of the experiment: Anti-browning experiment on fresh-cut apples. More on the design: species or system Fuji apples. Conditions: 50 µM, stored at 5 °C for 4 days.
For the compound `O=C1O[C@H]([C@@H](O)CO)C(O)=C1O` [Vc, ascorbic acid, reference compound], the “L* value of fresh-cut apples” value is 63.58. The same measure, in the same setting: under `O=c1cc(CO)occ1O` [Kojic acid, kojic acid, reference compound] stands 63.04.

The target in a further experiment is T1, mushroom tyrosinase (Agaricus bisporus, UniProt C7FF04).
T1 sequence (C7FF04 1-392 limits assumed): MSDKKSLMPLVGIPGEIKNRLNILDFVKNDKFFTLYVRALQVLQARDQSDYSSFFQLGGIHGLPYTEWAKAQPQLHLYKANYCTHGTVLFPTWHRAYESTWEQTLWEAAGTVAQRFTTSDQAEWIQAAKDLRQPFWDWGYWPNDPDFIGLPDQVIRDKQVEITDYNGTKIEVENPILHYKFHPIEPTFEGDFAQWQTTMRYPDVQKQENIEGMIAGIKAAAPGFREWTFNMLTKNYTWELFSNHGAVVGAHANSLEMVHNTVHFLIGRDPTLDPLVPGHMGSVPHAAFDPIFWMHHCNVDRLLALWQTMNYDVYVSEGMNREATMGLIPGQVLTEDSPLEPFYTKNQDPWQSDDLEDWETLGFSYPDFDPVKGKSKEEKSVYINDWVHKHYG
Test: not given
Conditions: read-out: Tyrosinase inhibitory activity IC50.
Regarding `CC(=O)c1ccc(F)cc1OCc1cn(Cc2cc(=O)c(O)co2)nn1` [Compound 13s, 2-((4-((2-acetyl-5-fluorophenoxy)methyl)-1H-1,2,3-triazol-1-yl)methyl)-5-hy-droxy-4H-pyran-4-one], the IC50 (commonly the concentration at which inhibition is half-maximal) was 2.58 ± 0.049 µM. Turning to `Cc1ccc(CC(=O)Nc2nnc(SCc3cn(Cc4cc(=O)c(O)co4)nn3)s2)cc1` [Compound 6l, N-(5-(((1-((5-hydroxy-4-oxo-4H-pyran-2-yl)methyl)-1H-1,2,3-triazol-4-yl)met-hyl)thio)-1,3,4-thiadiazol-2-yl)-2-(p-tolyl)acetamide], the IC50 came to 3.289 ± 0.011 µM. With `CC(=O)c1ccc(OCc2cn(Cc3cc(=O)c(O)co3)nn2)c(C)c1` [Compound 13e, 2-((4-((4-acetyl-2-methylphenoxy)methyl)-1H-1,2,3-triazol-1-yl)methyl)-5-hydr-oxy-4H-pyran-4-one], the IC50 was 1.74 ± 0.048 µM. On the same count and under the same terms, under `COc1ccc(CC(=O)Nc2nnc(SCc3cn(Cc4cc(=O)c(O)co4)nn3)s2)cc1` [Compound 6p, N-(5-(((1-((5-hydroxy-4-oxo-4H-pyran-2-yl)methyl)-1H-1,2,3-triazol-4-yl)met-hyl)thio)-1,3,4-thiadiazol-2-yl)-2-(4-methoxyphenyl)acetamide] stands 3.832 ± 0.005 µM; under `CC(=O)c1ccc(Br)cc1OCc1cn(Cc2cc(=O)c(O)co2)nn1` [Compound 13r, 2-((4-((2-acetyl-5-bromophenoxy)methyl)-1H-1,2,3-triazol-1-yl)methyl)-5-hy-droxy-4H-pyran-4-one], 3.33 ± 0.057 µM; under `Cc1ccccc1CC(=O)Nc1nnc(SCc2cn(Cc3cc(=O)c(O)co3)nn2)s1` [Compound 6j, N-(5-(((1-((5-hydroxy-4-oxo-4H-pyran-2-yl)methyl)-1H-1,2,3-triazol-4-yl)met-hyl)thio)-1,3,4-thiadiazol-2-yl)-2-(o-tolyl)acetamide], 17.26 ± 0.038 µM. With `CC(=O)c1ccc(C)cc1OCc1cn(Cc2cc(=O)c(O)co2)nn1` [Compound 13n, 2-((4-((2-acetyl-5-methylphenoxy)methyl)-1H-1,2,3-triazol-1-yl)methyl)-5-hy-droxy-4H-pyran-4-one], the IC50 was found to be 6.818 ± 0.027 µM. Consider `COc1ccc(C=O)c(OCc2cn(Cc3cc(=O)c(O)co3)nn2)c1` [Compound 13j, 2-((1-((5-hydroxy-4-oxo-4H-pyran-2-yl)methyl)-1H-1,2,3-triazol-4-yl)methox-y)-4-methoxybenzaldehyde], for which the IC50 came out at 2.817 ± 0.007 µM. Regarding `CC(=O)c1ccc(Cl)cc1OCc1cn(Cc2cc(=O)c(O)co2)nn1` [Compound 13q, 2-((4-((2-acetyl-5–CHlorophenoxy)methyl)-1H-1,2,3-triazol-1-yl)methyl)-5-hy-droxy-4H-pyran-4-one], the IC50 was found to be 3.03 ± 0.059 µM. In the case of `Cc1cccc(CC(=O)Nc2nnc(SCc3cn(Cc4cc(=O)c(O)co4)nn3)s2)c1` [Compound 6k, N-(5-(((1-((5-hydroxy-4-oxo-4H-pyran-2-yl)methyl)-1H-1,2,3-triazol-4-yl)met-hyl)thio)-1,3,4-thiadiazol-2-yl)-2-(m-tolyl)acetamide], the IC50 turned out to be 13.81 ± 0.066 µM.

Take `CC(=O)c1cc(C)ccc1OCc1cn(Cc2cc(=O)c(O)co2)nn1` [Compound 13o, 2-((4-((2-acetyl-4-methylphenoxy)methyl)-1H-1,2,3-triazol-1-yl)methyl)-5-hy-droxy-4H-pyran-4-one]: the IC50 stood at 1.83 ± 0.042 µM.

The target in another experiment is T1, mushroom tyrosinase. The experiment can be described thus: biochemical.
Settings: not given
Take `O=Cc1ccc(Cl)cc1OCc1cn(Cc2cc(=O)c(O)co2)nn1` [Compound 13m, 4–CHloro-2-((1-((5-hydroxy-4-oxo-4H-pyran-2-yl)methyl)-1H-1,2,3-triazol-4-yl)methoxy)benzaldehyde]: half-maximal inhibition (IC50) required 4.571 ± 0.004 µM.

In the case of `O=C(Cc1ccc(Br)cc1)Nc1nnc(SCc2cn(Cc3cc(=O)c(O)co3)nn2)s1` [Compound 6n, 2-(4-bromophenyl)-N-(5-(((1-((5-hydroxy-4-oxo-4H-pyran-2-yl)methyl)-1H-1,2,3-triazol-4-yl)methyl)thio)-1,3,4-thiadiazol-2-yl)acetamide], the midpoint of inhibition, the IC50, lay at 12.36 ± 0.039 µM. `O=Cc1ccccc1OCc1cn(Cc2cc(=O)c(O)co2)nn1` [Compound 13g, 2-((1-((5-hydroxy-4-oxo-4H-pyran-2-yl)methyl)-1H-1,2,3-triazol-4-yl)methoxy)benzaldehyde]: it took 2.1 ± 0.078 µM to reach half-maximal inhibition (IC50).

As to `O=Cc1ccc(F)cc1OCc1cn(Cc2cc(=O)c(O)co2)nn1` [Compound 13f, 4-fluoro-2-((1-((5-hydroxy-4-oxo-4H-pyran-2-yl)methyl)-1H-1,2,3-triazol-4-yl)methoxy)benzaldehyde], the midpoint of inhibition, the IC50, lay at 5.961 ± 0.036 µM. For `Cc1cccc(C(=O)Nc2nnc(SCc3cn(Cc4cc(=O)c(O)co4)nn3)s2)c1` [Compound 6c, N-(5-(((1-((5-hydroxy-4-oxo-4H-pyran-2-yl)methyl)-1H-1,2,3-triazol-4-yl)meth-yl)thio)-1,3,4-thiadiazol-2-yl)-3-methylbenzamide], the IC50 is > 200 µM. Same read-out and setting: the value for `O=C(Cc1ccc(F)cc1)Nc1nnc(SCc2cn(Cc3cc(=O)c(O)co3)nn2)s1` [Compound 6o, 2-(4-fluorophenyl)-N-(5-(((1-((5-hydroxy-4-oxo-4H-pyran-2-yl)methyl)-1H-1,2,3-triazol-4-yl)methyl)thio)-1,3,4-thiadiazol-2-yl)acetamide] was 11.98 ± 0.022 µM.

The compound `Nc1ccc(C(=O)Nc2nnc(SCc3cn(Cc4cc(=O)c(O)co4)nn3)s2)cc1` [Compound 6i, 4-amino-N-(5-(((1-((5-hydroxy-4-oxo-4H-pyran-2-yl)methyl)-1H-1,2,3-triazol-4-yl)methyl)thio)-1,3,4-thiadiazol-2-yl)benzamide] gave an IC50 of 16.31 ± 0.016 µM.

`Cc1ccccc1C(=O)Nc1nnc(SCc2cn(Cc3cc(=O)c(O)co3)nn2)s1` [Compound 6b, N-(5-(((1-((5-hydroxy-4-oxo-4H-pyran-2-yl)methyl)-1H-1,2,3-triazol-4-yl)meth-yl)thio)-1,3,4-thiadiazol-2-yl)-2-methylbenzamide]: the IC50 is > 200 µM. On to `Cc1ccc(C(=O)Nc2nnc(SCc3cn(Cc4cc(=O)c(O)co4)nn3)s2)cc1` [Compound 6d, N-(5-(((1-((5-hydroxy-4-oxo-4H-pyran-2-yl)methyl)-1H-1,2,3-triazol-4-yl)meth-yl)thio)-1,3,4-thiadiazol-2-yl)-4-methylbenzamide], for which the IC50 is > 200 µM.

As to `O=C(Cc1ccc(Cl)cc1)Nc1nnc(SCc2cn(Cc3cc(=O)c(O)co3)nn2)s1` [Compound 6m, 2-(4–CHlorophenyl)-N-(5-(((1-((5-hydroxy-4-oxo-4H-pyran-2-yl)methyl)-1H-1,2,3-triazol-4-yl)methyl)thio)-1,3,4-thiadiazol-2-yl)acetamide], the IC50 is 10.17 ± 0.032 µM. The same measure, in the same setting: the value for `COc1ccc(C(=O)Nc2nnc(SCc3cn(Cc4cc(=O)c(O)co4)nn3)s2)cc1` [Compound 6h, N-(5-(((1-((5-hydroxy-4-oxo-4H-pyran-2-yl)methyl)-1H-1,2,3-triazol-4-yl)meth-yl)thio)-1,3,4-thiadiazol-2-yl)-4-methoxybenzamide] was 5.56 ± 0.078 µM. The same measure, in the same setting: under `CC(C)(C)c1cccc(C=O)c1OCc1cn(Cc2cc(=O)c(O)co2)nn1` [Compound 13l, 3-(tert-butyl)-2-((1-((5-hydroxy-4-oxo-4H-pyran-2-yl)methyl)-1H-1,2,3-triazol-4-yl)methoxy)benzaldehyde] stands 4.98 ± 0.057 µM. Still for that read-out and setting: the value for `O=C(Nc1nnc(SCc2cn(Cc3cc(=O)c(O)co3)nn2)s1)c1ccc(Cl)cc1` [Compound 6e, 4–CHloro-N-(5-(((1-((5-hydroxy-4-oxo-4H-pyran-2-yl)methyl)-1H-1,2,3-triazol-4-yl)methyl)thio)-1,3,4-thiadiazol-2-yl)benzamide] was 6.073 ± 0.035 µM; that for `O=C(Nc1nnc(SCc2cn(Cc3cc(=O)c(O)co3)nn2)s1)c1ccccc1` [Compound 6a, N-(5-(((1-((5-hydroxy-4-oxo-4H-pyran-2-yl)methyl)-1H-1,2,3-triazol-4-yl)meth-yl)thio)-1,3,4-thiadiazol-2-yl)benzamide] was 20.59 ± 0.037 µM; that for `O=Cc1ccc(OCc2cn(Cc3cc(=O)c(O)co3)nn2)cc1` [Compound 13c, 4-((1-((5-hydroxy-4-oxo-4H-pyran-2-yl)methyl)-1H-1,2,3-triazol-4-yl)methoxy)benzaldehyde] was 4.55 ± 0.062 µM. Take `O=C(Nc1nnc(SCc2cn(Cc3cc(=O)c(O)co3)nn2)s1)c1ccc(F)cc1` [Compound 6g, 4-fluoro-N-(5-(((1-((5-hydroxy-4-oxo-4H-pyran-2-yl)methyl)-1H-1,2,3-triazol-4-yl)methyl)thio)-1,3,4-thiadiazol-2-yl)benzamide]: inhibition was half-maximal at 8.24 ± 0.023 µM (IC50). As to `CC(=O)c1cccc(OCc2cn(Cc3cc(=O)c(O)co3)nn2)c1` [Compound 13b, 2-((4-((3-acetylphenoxy)methyl)-1H-1,2,3-triazol-1-yl)methyl)-5-hydroxy-4H-pyran-4-one], the IC50 came out at 4.604 ± 0.046 µM. Still for that read-out and setting: under `O=Cc1cccc(OCc2cn(Cc3cc(=O)c(O)co3)nn2)c1` [Compound 13a, 3-((1-((5-hydroxy-4-oxo-4H-pyran-2-yl)methyl)-1H-1,2,3-triazol-4-yl)methoxy)-benzaldehyde] stands 2.474 ± 0.023 µM. Still for that read-out and setting: the value for `O=Cc1ccc(Br)cc1OCc1cn(Cc2cc(=O)c(O)co2)nn1` [Compound 13p, 4-bromo-2-((1-((5-hydroxy-4-oxo-4H-pyran-2-yl)methyl)-1H-1,2,3-triazol-4-yl)methoxy)benzaldehyde] was 4.231 ± 0.029 µM; that for `CC(=O)c1ccccc1OCc1cn(Cc2cc(=O)c(O)co2)nn1` [Compound 13k, 2-((4-((2-acetylphenoxy)methyl)-1H-1,2,3-triazol-1-yl)methyl)-5-hydroxy-4H-pyran-4-one] was 1.517 ± 0.01 µM.

`CC(=O)c1ccc(OCc2cn(Cc3cc(=O)c(O)co3)nn2)cc1` [Compound 13d, 2-((4-((4-acetylphenoxy)methyl)-1H-1,2,3-triazol-1-yl)methyl)-5-hydroxy-4H-pyran-4-one] showed an IC50 of 9.908 ± 0.044 µM.
